In data set [1] the test system is mouse cuprizone model. Nature of the data set: Myelin regeneration promoting action in mouse cuprizone model (LFB staining of corpus callosum). In kind it is in vivo. The following applies: 4 weeks after 6 weeks cuprizone diet, untreated = 100%. From the text:
C57BL/6J mice (8 weeks old, male) were fed a diet containing 0.3% cuprizone (bis(cyclohexanone)oxaldihydrazone) (Research Diets, Inc. #D17042709) for 6 weeks to induce demyelination. Subsequently, the mice were divided into groups of 8 mice based on the body weight, the diet was switched to a cuprizone-free diet (Research Diets, Inc. #D10001), and administration of the test compound or vehicle was started. […] After administration of 4 weeks, the mice were euthanized, perfused with a 4% paraformaldehyde solution, and then brain sampling was performed. The brain sample obtained was embedded in paraffin to prepare a coronal section specimen at Bregma+1. The specimen was stained with Luxor Fast Blue (LFB) to visualize the myelin sheath, and images were acquired using a fluorescence microscope (KEYENCE #BZ-X710). The corpus callosum area and the LFB staining positive area in the corpus callosum of the obtained pathological specimen image were measured using an image analysis application (KEYENCE #BZ-H3C/BZ-H3XD), and the ratio (LFB staining positive area in the corpus callosum/corpus callosum area) was calculated. The intact group is a non-pathogenic group, and the […] control group were sampled after feeding the diet containing 0.3% cuprizone for 6 weeks.
In the table, the ratio of LFB staining positive area in the corpus callosum/corpus callosum area of the untreated group, fed with the cuprizone-free diet for 6 weeks, was regarded as 100%. As a result, the control group, fed with the cuprizone-containing diet for 6 weeks, decreased the ratio to 23.6%, and was confirmed to progress demyelination. The group, in which the cuprizone-containing diet was fed for 6 weeks and switched to the cuprizone-free diet, and the vehicle was administered, improved the ratio of area of LFB staining positive/area of corpus callosum to 50.1%. […] In addition, GSK239512 described in WO2013/107336 pamphlet was evaluated in the test to show the ratio of LFB staining positive area/corpus callosum area of 45.8%, in which no demyelination regeneration promoting action was shown as compared with the vehicle-administered group.

Data set [2] is described as follows: Evaluation of brain penetration in mice (blood and brain concentration at brain Cmax). In kind it is in vivo, mouse. The following applies: C57BL/6J mice; for Kp: male, C57BL/6J, mouse, brain/plasma, po. In outline:
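Male C57BL/6J mice (8 weeks, n=3) dosed orally once at 1 […] mg/kg; plasma and brain collected at 0.25, 0.5, 1, 2, 4 and 8 h. Compound extracted with acetonitrile from brain homogenate and plasma, quantified by LC/MS/MS.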

Data set [3] has as its system rat oligodendrocyte progenitor cells. The experiment in a line: Promotive activity of rat oligodendrocyte progenitor cell differentiation-2 (immunostaining of MBP). In kind it is cell-based. The following applies: vitamin D derivative 2 μM, T3 30 nM, 4 days. A digest of the protocol: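 Rat OPCs prepared by shaking in separation medium about 22 h at 37 °C, 200 rpm, and collecting the supernatant.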

Data set [4] deals with T1, human VDR (Homo sapiens, UniProt P11473).
T1 sequence (P11473 1-427): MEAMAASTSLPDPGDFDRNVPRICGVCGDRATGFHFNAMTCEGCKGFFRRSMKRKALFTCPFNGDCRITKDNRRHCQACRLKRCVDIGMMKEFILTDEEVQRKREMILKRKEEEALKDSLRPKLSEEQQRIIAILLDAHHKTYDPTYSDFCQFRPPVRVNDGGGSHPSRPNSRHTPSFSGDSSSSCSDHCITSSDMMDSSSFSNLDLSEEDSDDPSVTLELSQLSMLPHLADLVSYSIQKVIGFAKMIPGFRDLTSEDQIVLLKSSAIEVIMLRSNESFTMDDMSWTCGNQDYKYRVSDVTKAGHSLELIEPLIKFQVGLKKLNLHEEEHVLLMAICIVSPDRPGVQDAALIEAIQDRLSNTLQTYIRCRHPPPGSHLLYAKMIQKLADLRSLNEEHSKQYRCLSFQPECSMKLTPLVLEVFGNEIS
T1 sequence (P19793 1-462 partner): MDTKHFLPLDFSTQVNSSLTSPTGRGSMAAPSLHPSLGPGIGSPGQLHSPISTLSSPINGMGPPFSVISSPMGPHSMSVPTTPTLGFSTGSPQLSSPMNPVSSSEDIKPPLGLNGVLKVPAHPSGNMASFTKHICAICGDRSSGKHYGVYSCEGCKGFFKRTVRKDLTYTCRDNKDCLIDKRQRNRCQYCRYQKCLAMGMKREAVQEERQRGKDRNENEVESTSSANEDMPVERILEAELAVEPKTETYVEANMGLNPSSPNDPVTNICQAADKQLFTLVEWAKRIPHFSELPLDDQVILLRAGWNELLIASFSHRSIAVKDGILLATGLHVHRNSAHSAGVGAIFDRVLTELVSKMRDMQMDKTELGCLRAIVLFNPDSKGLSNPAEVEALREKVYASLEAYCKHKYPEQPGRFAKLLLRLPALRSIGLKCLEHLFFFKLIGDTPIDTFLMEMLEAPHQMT
Nature of the data set: Evaluation of VDR transcription activity in human osteoblasts (HOS cells), luciferase reporter. The following applies: Activity (EC50, VDR transcription activity), HOS cells transfected with human VDR, human RXRα and DR3 luciferase reporter; 21 hours.

The nature of data set [5]: Evaluation of calcium increasing action in normal mice (serum calcium). In kind it is in vivo, mouse. The following applies: for Serum calcium concentration: repeated oral once a day, 2 weeks, C57BL/6J mice; for Calcium concentration Fluctuation range: vs vehicle 8.9 mg/dL.
Protocol: After acclimatizing C57BL/6J mice (7 weeks old, male) for 1 week, the mice were divided into groups of 5 mice based on the body weight, and administration of the compound or vehicle was started. The administration solution used was a compound (in ethanol) or ethanol diluted 100-fold with 0.1% Trion X-100 (SIGMA #X100-100ML)/saline, and the repeated oral administration at once a day was performed. After administration of 2 weeks, euthanasia was performed by collecting all blood under general anesthesia.
The test system of data set [6] is oligodendrocyte progenitor cells derived from VDR knockout mice. The experiment in a line: Oligodendrocyte progenitor cell differentiation using VDR knockout mice (MBP immunostaining). In kind it is cell-based. The following applies: 1000 nM, 4 days, VDR KO mouse OPC. As for the experimental part:
The promotive activity of oligodendrocyte progenitor cell (OPC) differentiation of the vitamin D derivatives was evaluated by using oligodendrocyte progenitor cells derived from VDR knockout mice. (1) Collection of Neural Stem Cells from VDR KO Mouse […]
The oligodendrocyte progenitor cells derived from VDR KO mouse prepared were suspended in oligodendrocyte progenitor cell differentiation medium (2% B27 (Thermo Fisher Scientific #17504-044)/1% penicillin-streptomycin (Invitrogen #15140-122)/10 ng/mL CNTF (PeproTech #AF-450-13)/DMEM/F-12, no glutamine (Gibco #21331-020)), and were seeded on a 96-well plate coated with poly-L-ornithine (FUJIFILM Wako Pure Chemical Corporation #163-27421) under the condition of 2.0×10^4 cells/well. […] Subsequently, images of each well were acquired using a fluorescence microscope (KEYENCE CORPORATION #BZ-X800), the number of MBP-positive cells and Hoechst 33342-positive cells (total cells) were measured using an image analysis application (KEYENCE CORPORATION #BZ-X800 Analyzer), and then the ratio of number of MBP-positive cells/number of Hoechst33342-positive cells (total cells) was calculated, and then the ratio of those to the DMSO group was calculated as a result. […]

Data set [7] concerns rat oligodendrocyte progenitor cells. Nature of the data set: Promotive activity of rat oligodendrocyte progenitor cell differentiation-1 (MBP gene expression, mRNA). The data set is classed as cell-based. The following applies: 4 days. A digest of the protocol:
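Primary OPCs from 1-day-old SD rat forebrain, isolated by shaking off mixed glial cultures and seeded at 2×10^3 cells/well in B27/CNTF (10 ng/mL) differentiation medium with compound. MBP mRNA measured by one-step TaqMan real-time PCR and expressed as MBP/β-actin ratio.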

[8] abbreviates: 1 mg/kg, 1 mg/kg single oral dose, read-out: Concentration in brain/in blood ratio at brain Cmax.
Where [9] appears, read: 0.2 mg/kg single oral dose, n=3.

Where two headings read alike, the source gives them in different places.

With `C[C@H](CN1CC[C@@H](C(C)(F)F)C1)[C@H]1CC[C@H]2/C(=C/C=C3C[C@@H](O)C[C@H](O)C3)CCC[C@]12C` [Compound B034, (1R,3R)-5-(2-((1R,3aS,7aR,E)-1-((S)-1-((R)-3-(1,1-difluoroethyl)pyrrolidin-1-yl)propan-2-yl)-7a-methyloctahydro-4H-inden-4-ylidene)ethylidene)cyclohexane-1,3-diol], in data set [1] (6 μg/kg oral once a day), the “Ratio (%): area of LFB staining positive/area of corpus callosum, mean” value was found to be 88.1%. Further, in data set [2] (1 mg/kg single oral dose, n=3), the “Concentration in blood (mean ± SD) at brain Cmax” value amounted to 0.251 ± 0.009 µM and the “Concentration in brain (mean ± SD) at brain Cmax” value is 562 ± 50 pmol/g. The Kp in data set [2] (setting [8]) worked out at 2.24. For the same compound, the “Mean (number of MBP-positive cells/number of Hoechst33342-positive cells)” value in data set [3] (Test 1) stood at 0.57.
What is called EC50 is the concentration giving half of the maximal effect. Higher therefore signals a less potent agent. With `C[C@H](CN1CC[C@@H](CC(F)F)C1)[C@H]1CC[C@H]2/C(=C/C=C3C[C@@H](O)C[C@H](O)C3)CCC[C@]12C` [Compound B043, (1R,3R)-5-(2-((1R,3aS,7aR,E)-1-((S)-1-((S)-3-(2,2-difluoroethyl)pyrrolidin-1-yl)propan-2-yl)-7a-methyloctahydro-4H-inden-4-ylidene)ethylidene)cyclohexane-1,3-diol], the “Ratio (%): area of LFB staining positive/area of corpus callosum, mean” value in data set [1] (2 μg/kg oral once a day) is 84.9%. Further, in data set [2] (1 mg/kg single oral dose, n=3), the “Concentration in blood (mean ± SD) at brain Cmax” value came to 0.074 ± 0.001 µM and the “Concentration in brain (mean ± SD) at brain Cmax” value is listed as 80 ± 9 pmol/g. Further, the Kp in data set [2] (setting [8]) was found to be 1.08. The same compound displayed an EC50 in data set [4] of 0.01 to 0.1 µM.
As for `C[C@H](CN1CCOC[C@H]1C)[C@H]1CC[C@H]2/C(=C/C=C3C[C@@H](O)C[C@H](O)C3)CCC[C@]12C` [Compound G005, (1R,3R)-5-(2-((1R,3aS,7aR,E)-7a-methyl-1-((S)-1-((R)-3-methylmorpholino)propan-2-yl)octahydro-4H-inden-4-ylidene)ethylidene)cyclohexane-1,3-diol], in data set [5] (20 μg/kg), the Serum calcium concentration came out at 9.1 mg/dL and the “Calcium concentration Fluctuation range” value is recorded as 0.2 mg/dL. Moreover, in data set [5] (60 μg/kg), the Serum calcium concentration is given as 9.1 mg/dL and the “Calcium concentration Fluctuation range” value is 0.2 mg/dL. For the same compound, in data set [5] (200 μg/kg), the Serum calcium concentration was found to be 9.0 mg/dL and the “Calcium concentration Fluctuation range” value was determined as 0.1 mg/dL. In data set [2] (setting [9]), the “Concentration in blood at brain Cmax” value is 0.0841 ± 0.0097 µM and the “Concentration in brain at brain Cmax” value was 140.8 ± 17.6 pmol/g. In addition, in data set [2] (0.2 mg/kg, 0.2 mg/kg single oral dose, read-out: Concentration ratio in brain/in blood at brain Cmax), the Kp came out at 1.67. Moreover, in data set [6], the “Mean (ratio MBP-positive cells/Hoechst33342-positive cells, relative to the DMSO group = 100.0)” value is reported as 215.1. For the same compound, in data set [3] (Test 3), the “Mean (number of MBP-positive cells/number of Hoechst33342-positive cells)” value came to 0.34.
With `O=C1CCCN1c1ccc(Oc2ccc3c(c2)CCN(C2CCC2)CC3)nc1` [GSK239512, reference compound], in data set [1] (10 mg/kg oral once a day), the “Ratio (%): area of LFB staining positive/area of corpus callosum, mean” value came to 45.8%. In addition, the “enhancement in the MBP gene expression compared with the wells added with DMSO” value in data set [7] (1 μM) was found to be 1.8 times. In data set [7] (Rattus norvegicus, Oligodendrocyte progenitor cell, 96 h, read-out: promotive activity at T3 base (MBP gene expression; DMSO 0%, T3 100%), MBP/β actin mRNA), the activation at 1 µM amounted to 18%.

Values taken from patent US20230348376A1 (TEIJIN PHARMA LIMITED, priority 2020, published 2023).
